Legend:
Conditions in all cases: human; call rule not given here
Hepatotoxicity [1] = assay: FDA HLAED, liver enzyme composite activity
Hepatotoxicity [2] = assay: FDA HLAED, alkaline phosphatase increase
Hepatotoxicity [3] = assay: FDA HLAED, serum glutamic oxaloacetic transaminase (SGOT) increase
Hepatotoxicity [4] = assay: FDA HLAED, serum glutamic pyruvic transaminase (SGPT) increase
Hepatotoxicity [5] = assay: FDA HLAED, lactate dehydrogenase (LDH) increase
Hepatotoxicity [6] = assay: FDA HLAED, gamma-glutamyl transferase (GGT) increase
Throughout, for GGT Increase - Index Value: reference of the scale not given here.
Throughout, for LDH Increase - Index Value: reference of the scale not given here.

Structure (SMILES) | Composite Activity - Active (Hepatotoxicity [1]) | Composite Activity - Marginal (Hepatotoxicity [1]) | Composite Activity - Score (Hepatotoxicity [1]) | Alkaline Phosphatase Increase - Activity Score (Hepatotoxicity [2]) | Alkaline Phosphatase Increase - Index Value (Hepatotoxicity [2]) | Alkaline Phosphatase Increase - Number of Reports (Hepatotoxicity [2]) | SGOT Increase - Activity Score (Hepatotoxicity [3]) | SGOT Increase - Index Value (Hepatotoxicity [3]) | SGOT Increase - Number of Reports (Hepatotoxicity [3]) | SGPT Increase - Activity Score (Hepatotoxicity [4]) | SGPT Increase - Index Value (Hepatotoxicity [4]) | SGPT Increase - Number of Reports (Hepatotoxicity [4]) | LDH Increase - Activity Score (Hepatotoxicity [5]) | LDH Increase - Index Value (Hepatotoxicity [5]) | LDH Increase - Number of Reports (Hepatotoxicity [5]) | GGT Increase - Activity Score (Hepatotoxicity [6]) | GGT Increase - Index Value (Hepatotoxicity [6]) | GGT Increase - Number of Reports (Hepatotoxicity [6]) | further results
C=C1c2c(Cl)ccc(O)c2C(=O)C2=C(O)[C@]3(O)C(=O)C(C(N)=O)=C(O)[C@@H](N(C)C)[C@@H]3[C@@H](O)[C@H]12 [MECLOCYCLINE] | 0 | 0 | Inactive | Inactive | 0 | < 4 | Inactive | 0 | < 4 | Inactive | 0 | < 4 | Inactive | 0 | < 4 | Inactive | 0 | < 4 | 
Cc1ccc(Cl)c(Nc2ccccc2C(=O)O)c1Cl [MECLOFENAMIC ACID] | 0 | 0 | Inactive | Inactive | 0 | < 4 | Inactive | 0 | < 4 | Inactive | 0 | < 4 | Inactive | 0 | < 4 | Inactive | 0 | < 4 | 
OC(c1cc(C(F)(F)F)nc2c(C(F)(F)F)cccc12)C1CCCCN1 (stereo unspecified) [MEFLOQUINE] | 3 | 0 | Active | Inactive | 7.2 | < 4 | Active | 25.3 | >= 4 | Active | 32.5 | >= 4 | Inactive | 0 | < 4 | Active | 18 | >= 4 | 
C[C@@H](O)[C@H]1C(=O)N2C(C(=O)O)=C(S[C@@H]3CN[C@H](C(=O)N(C)C)C3)[C@H](C)[C@H]12 [MEROPENEM] | 2 | 1 | Active | Inactive | 0 | < 4 | Active | 50.8 | < 4 | Active | 50.8 | < 4 | Marginally Active | 33.8 | < 4 | Inactive | 0 | < 4 | 
Nc1ccc(O)c(C(=O)O)c1 [MESALAMINE] | 0 | 0 | Inactive | Inactive | 1.3 | >= 4 | Inactive | 2.2 | >= 4 | Inactive | 1.8 | >= 4 | Inactive | 1.1 | >= 4 | Inactive | 1.5 | >= 4 | 
O=S(=O)([O-])CCS.[Na+] [MESNA] | 0 | 0 | Inactive | Inactive | 0 | < 4 | Inactive | 5 | < 4 | Inactive | 0 | < 4 | Inactive | 5 | < 4 | Inactive | 0 | < 4 | 
CN(C)C(=N)N=C(N)N [METFORMIN] |  |  |  | Inactive | 0 | < 4 | Inactive | 0 | < 4 | Inactive | 0 | < 4 | Inactive | 0 | < 4 | Inactive | 0 | < 4 | Composite Activity - Active (Hepatotoxicity [1]; Liver): 0; Composite Activity - Marginal (Hepatotoxicity [1]; Liver): 0; Composite Activity - Score (Hepatotoxicity [1]; Liver): Inactive
CC(=O)Oc1c(C)cc(OCC(O)CNC(C)C)c(C)c1C (stereo unspecified) [METIPRANOLOL] | 0 | 0 | Inactive | Inactive | 0 | < 4 | Inactive | 0 | < 4 | Inactive | 0 | < 4 | Inactive | 0 | < 4 | Inactive | 0 | < 4 | 
CCN(CC)CCNC(=O)c1cc(Cl)c(N)cc1OC [METOCLOPRAMIDE] | 0 | 0 | Inactive | Inactive | No Shipping Units | < 4 | Inactive | 0 | < 4 | Inactive | 0 | < 4 | Inactive | 0 | < 4 | Inactive | 0 | < 4 | 
COCCc1ccc(OCC(O)CNC(C)C)cc1 (stereo unspecified) [METOPROLOL] | 0 | 0 | Inactive | Inactive | 0.4 | >= 4 | Inactive | 0.5 | >= 4 | Inactive | 0.5 | >= 4 | Inactive | 0.3 | < 4 | Inactive | 0 | < 4 | 
C[C@](N)(Cc1ccc(O)cc1)C(=O)O [METYROSINE] |  |  |  | Inactive | 0 | < 4 | Inactive | 0 | < 4 | Inactive | 0 | < 4 | Inactive | 0 | < 4 | Inactive | 0 | < 4 | Composite Activity - Active (Hepatotoxicity [1]; Liver): 0; Composite Activity - Marginal (Hepatotoxicity [1]; Liver): 0; Composite Activity - Score (Hepatotoxicity [1]; Liver): Inactive
Cc1cccc(C)c1OCC(C)N (stereo unspecified) [MEXILETINE] |  |  |  | Marginally Active | 3.1 | >= 4 | Active | 6.7 | >= 4 | Marginally Active | 3.6 | >= 4 | Inactive | 2 | >= 4 | Inactive | 0 | < 4 | Composite Activity - Active (Hepatotoxicity [1]; Liver): 1; Composite Activity - Marginal (Hepatotoxicity [1]; Liver): 2; Composite Activity - Score (Hepatotoxicity [1]; Liver): Inactive

Source: ChEMBL document CHEMBL1697781, “Assessment of the health effects of chemicals in humans: II. Construction of an adverse effects database for QSAR modeling” (Curr Drug Discov Technol, 2004)
